Results on 7 compounds are retold here after publication PMC9120013, “Ribosome inhibition by C9ORF72-ALS/FTD-associated poly-PR and poly-GR proteins revealed by cryo-EM” (Nature Communications, 2022).

In series [1] the target is Escherichia coli 70S ribosome (E. coli).
Series [2] deals with Oryctolagus cuniculus (rabbit) 80S ribosome (rabbit (Oryctolagus cuniculus)) (UniProt G1SVW5).
The target is the same in series [3]. This is another data set of the same source.
Series [4] concerns ribosomes on endogenous globin mRNAs in RRL. Put plainly: Polysome profiling of RRL translating endogenous mRNA. The format is biochemical, rabbit. To be noted: 4 μM PR20, 4 μM GR20, 1 mM GDPCP; 5 min. As for the experimental part: Polysome profiles were obtained using RRL untreated with nuclease, so that it contained endogenous mRNA. 100 μl reactions containing 50% RRL (Green Hectare) 30 μM hemin (Sigma), 75 mM KCl, 0.5 mM MgCl2, 1 mM ATP, 0.2 mM GTP, 2.1 mg/ml creatine phosphate, 30 μM of L-amino acid mix, 15 mg/ml yeast tRNA, 6 mM BME and, when appropriate, translation inhibitors (4 μM PR20, 4 μM GR20, cycloheximide, 40 μM harringtonine, or 1 mM GDPCP with 1 mM MgCl2) were assembled on ice. To start translation, the reactions were warmed in a heat block at either 30 °C or 37 °C as noted. After 5 min, reactions were terminated by addition of 100 μl of ice-cold Stop Buffer (50 mM Hepes-KOH pH 7.4, 150 mM KOAc, 10 mM Mg(OAc)2, and 200 μg/ml cycloheximide). The stopped reactions were applied to 10–50% sucrose gradients in Gradient Buffer (50 mM Hepes-KOH pH 7.4, 150 mM KOAc, 10 mM Mg(OAc)2, 2 mM DTT, and 100 μg/ml cycloheximide) and spun in an SW-41 rotor (Beckman Coulter) at 197,568xg (avg) for 2 h at 4 °C. Gradients were pumped on a Gradient Station (BioComp Instruments) at a pump rate of 0.29 mm/min and the absorbance at 254 nm was measured by an Econo UV monitor (Biorad) zeroed with 10% sucrose-gradient buffer. The traces were output as CSV files and imported into GraphPad Prism, where the 80S peaks were aligned. Controls were highly reproducible day-to-day. Each experimental condition is shown compared to concurrent, uninhibited control.

Series [5] relates to ribosomes on endogenous beta-globin mRNA in RRL. Put plainly: Toeprinting of 80S and 4-5-mer polysome fractions on beta-globin mRNA. The format is biochemical, rabbit. Particulars: for normalized ratio START to CDS, MEAN: 4-5-mer, primer B, mean of ten 20 bp windows. As for the experimental part: Toeprinting analyses were carried out similarly to those in refs. [51],[74], using 80S and polysome (4–5-some) fractions collected from polysome profiles as described in “Polysome Profiles” except that reactions were doubled in size (200 μL), performed at 37 °C, and were stopped with ice-cold 1xAMV Buffer (50 mM Tris-HCl pH 8.3, 50 mM KCl, 5 mM MgCl2) with 200 μg/ml cycloheximide before being separated on at 10–35% sucrose gradient in 1xAMV buffer with 0.5 mM spermidine and 1 mM DTT. 600 μl of each fraction (80S or 4–5-mer) was supplemented with 10 mM DTT. Then 10 U of AMV reverse transcriptase (Promega), 120 nmol dNTPs, and 120 pmol of a 5'[6-carboxyfluorescein (FAM)]-labeled primer (IDT-DNA) were added. Two primers specific to the endogenous beta-globin mRNA in RRL were used in separate reactions: 5′-(FAM)-GGACTCGAAGAACCTCTG (as in ref. [74]) annealed 136 nucleotides downstream of the AUG or 5′-(FAM)-[…] annealed to the end of the 3'-UTR. Primers were extended at 37 °C for 30 min, and then the reaction were extracted in 1:1 phenol:chloroform, supplemented with 1/10 volume of 3 M sodium acetate pH 5.2, and precipitated with 2.5 volumes of 100% ethanol. Pellets were resuspended in 10 μl of deionized formamide (Applied Biosystems) with 1/20 volume of a 35-500 nucleotide orange-dye labeled DNA size standard (MCLab) and loaded onto a 96-well plate. The samples were sent for fragment analysis by capillary electrophoresis to the UMass Chan Medical School Molecular Biology Core Laboratory using an ABI3730XL DNA Fragment Analyzer with capillaries loaded with POP-7 polymer and with an injection voltage of 12.5 kV. Data collection was performed with GeneMapper software (ABI). Data were exported as.fsa files and were analyzed (aligning to ladder and background correction) in GeneMarker 3.0.1 software (SoftGenetics) running in demo mode. Screen captures of traces were taken and traces were integrated using the “Quantification” feature and manually adjusting sliders to include the desired nucleotide range.

For series [6] the following is noted: even at 100 µM; cited from earlier work. From the text:
(§1) This work uncovers how the toxic arginine-containing DPR proteins associated with C9ORF72-ALS/FTD inhibit translation. […] Poly-PR and poly-GR binding to large subunits and assembled 80S ribosomes would compete with the binding of initiator Met-tRNA or elongator tRNAs, and strongly interfere with peptidyl transfer, consistent with transl ...

Series [7] has as its system translation. To be noted: even at 100 µM; cited from earlier work.
Text: as §1

Series [8] has as its system translation in E. coli cell lysates. Put plainly: Nanoluciferase translation in E. coli cell lysate (NEBExpress). The series is classed as biochemical. To be noted: 1 μl of 200 μM stock in 10-μl reaction. As for the experimental part:
E. coli cell lysates (NEBExpress, NEB) were used to investigate bacterial translation inhibition by GR20 and PR20. We monitored the translation of an in vitro transcribed mRNA encoding a Shine-Dalgarno sequence preceding the nanoluciferase (Promega) open reading frame. The mRNA was prepared by in vitro transcription of a PCR-template obtained by amplifying the nanoluciferase open reading frame from the plasmid described in reference with the following primers: T7 + SD-forward: […], based on the pet28a+ plasmid and reverse: […]. […] Then 1 μl of water or different concentrations (10-100 μM) of PR20 or GR20 or 200 μM erythromycin were added and the plate was incubated at 37 °C for 5 min inside of an Infinite m1000 pro microplate reader (Tecan). Next, the nanoluciferase mRNA was added to the final concentration of 20 ng/μl in a 10-μl reaction. Translation reactions were incubated at 37 °C for 20 min, luminescence of the samples was continuously measured by the microplate reader to record the time course of protein synthesis. Time progress curves, obtained in the experiments, were processed in MS Excel, and the rate of change of the relative light units between 100 and 200 s was measured, the mean and SEM of three experiments is reported in column graph in Supplementary Fig. 2a.

The test system of series [9] is E. coli 70S ribosomes. Put plainly: Erythromycin competition in the puromycin assay on 70S ribosomes. The series is classed as biochemical. Particulars: for fMet-puromycin formed: 20 μM erythromycin and/or 2 μM PR20, 30 nM 70S, quenched at 300 s. As for the experimental part:
The assay was performed as described above for the puromycin kinetics, except that the 70S ribosomes were pre-incubated with 22 μM erythromycin for 5 min prior to adding PR20. The stock solution of erythromycin contained 2 mM erythromycin in ethanol, so the control reaction (70S with no erythromycin) and the reactions with erythromycin were prepared to contain the same amount of ethanol (1%). The final concentrations after addition of puromycin were: 30 nM 70S, 66 nM [^35S]-fMet-tRNA^fMet, 1 μM mRNA, 2 μM PR20 (no PR20 in the control reaction), 20 μM erythromycin (or no erythromycin in a control reaction), 50 µM puromycin (in 20 mM Tris-acetate (pH 7.0), 100 mM NH4OAc, 12 mM Mg(OAc)2 and 1% ethanol). Samples were quenched at 300 s when the uninhibited reaction had reached a plateau.

Bounds are passed on as bounds.

In the case of “PR20 (poly-proline-arginine, 20 repeats) (peptide)”, the apparent inhibition constant (Ki) of peptidyl transfer from [35S]-fMet-tRNAfMet to puromycin on E. coli 70S ribosomes in [1] was 44 nM. Further, the concentration at which inhibition of peptidyl transfer to puromycin begins on purified rabbit 80S ribosomes in [2] amounted to 100 nM. Besides, in series [3], the IC50 of translation of nanoluciferase mRNA in 33% rabbit reticulocyte lysate was found to be 325 nM and the IC50 of translation of nanoluciferase mRNA in 50% rabbit reticulocyte lysate amounted to 840 nM.

Regarding `Nc1nc2c(ncn2[C@@H]2O[C@H](COP(=O)(O)OP(=O)(O)CP(=O)(O)O)[C@@H](O)[C@H]2O)c(=O)[nH]1` [GDPCP], in series [4], the “polysome profile, half-mer peaks” value is “increase in half-mer peaks”. Also, the “site of ribosome accumulation, toe-printing of polysome fractions” value in series [5] is “accumulate within the open reading frame”. The “Ratio (START to CDS)” value in series [5] (80S fraction, primer A, Fig. 2f independent repeat) was 1.314. Further, in series [5] (80S fraction, primer A, Fig. 2f independent repeat, no inhibitor = 1), the “Normalized ratio START/ORF” value is given as 0.4872. In addition, the “normalized ratio START to CDS, MEAN” value in series [5] (Fig. 2g) is 0.7887; in series [5] (Fig. 2h independent repeat), 0.4286.

For the compound “GRKKRRQRRRPPQ [TAT, arginine-rich polypeptide]”, the cell death entry in series [6] is “not to cause translation inhibition or cell death”. The translation inhibition result in series [7] is “not to cause translation inhibition”.

Turning to “PR40 (poly-proline-arginine, 40 repeats) (peptide)”, the apparent inhibition constant (Ki) of peptidyl transfer to puromycin on E. coli 70S ribosomes in series [1] is < 30 nM. For the same compound, the apparent inhibition constant (Ki) of peptidyl transfer to puromycin on purified rabbit 80S ribosomes in series [2] was < 30 nM.

In the case of “RRRRNRTRRNRRRVR [FHV, arginine-rich polypeptide]”, the cell death result in [6] is recorded as “not to cause translation inhibition or cell death”. The translation inhibition entry in [7] is given as “not to cause translation inhibition”.

Consider `CC[C@H]1OC(=O)[C@H](C)[C@@H](O[C@H]2C[C@@](C)(OC)[C@@H](O)[C@H](C)O2)[C@H](C)[C@@H](O[C@@H]2O[C@H](C)C[C@H](N(C)C)[C@H]2O)[C@](C)(O)C[C@@H](C)C(=O)[C@H](C)[C@@H](O)[C@]1(C)O` [erythromycin], for which the “effect on nanoluciferase translation in E. coli cell extracts” value in [8] is given as “Inhibition of nanoluciferase translation”. Further, the values for the fMet-puromycin formed in [9] (first column (replicate 1)) and in series [9] (second column (replicate 2)) were 1468 and 1479, respectively. In [9] (20 μM erythromycin, 2 μM PR20), the “effect of erythromycin preincubation on inhibition by PR20” value is “prevents the inhibitory action of PR20”.

Turning to “RRRRRRRRRRRR [R12, arginine-rich polypeptide]”, in series [6], the cell death result is recorded as “not to cause translation inhibition or cell death”. In addition, the translation inhibition entry in series [7] is reported as “not to cause translation inhibition”.
